Measurements reported in US12679843B2, “Pyrrolopyrimidine amines as complement inhibitors” (BioCryst Pharmaceuticals, Inc., priority 2020, dated 2026).

Each compound was assayed against Factor D (Homo sapiens, UniProt P00746) (assay: Factor D esterolytic assay (Z-Lys-SBzl thioester substrate, DTNB, 405 nm)). Conditions: substrate Z-Lys-SBzl 1.29 mM, 100 mM HEPES, 500 mM NaCl, pH 7.5, 10% DMSO, tested a minimum of three times.
Type: biochemical
Outline: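 Human Factor D hydrolysis of Z-Lys-SBzl (1.29 mM) monitored at 405 nm via DTNB thiol detection for 600 s, 690 nm background subtracted. Buffer 100 mM HEPES, 500 mM NaCl, pH 7.5, 10% DMSO; substrate added immediately or after room-temperature preincubation. IC50 from percent inhibition of rate, at least three tests.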

Sequence of Factor D (P00746 26-253): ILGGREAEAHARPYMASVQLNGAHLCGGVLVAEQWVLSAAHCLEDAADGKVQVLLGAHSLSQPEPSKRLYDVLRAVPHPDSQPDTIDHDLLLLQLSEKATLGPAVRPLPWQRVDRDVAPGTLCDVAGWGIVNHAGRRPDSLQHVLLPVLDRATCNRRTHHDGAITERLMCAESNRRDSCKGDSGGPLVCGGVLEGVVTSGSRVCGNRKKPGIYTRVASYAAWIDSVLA

Row | Compound | IC50 [nM]
1 | C[C@H]1C[C@@H](C(=O)Nc2cccc(Br)n2)N(C(=O)Cn2c3ccc(C(F)(F)F)cc3c3c(N)ncnc32)C1 [Compound 208d, (2S,4S)-1-(2-(4-amino-6-(trifluoromethyl)-9H-pyrimido[4,5-b]indol-9-yl)acetyl)-N-(6-bromopyridin-2-yl)-4-methylpyrrolidine-2-carboxamide] | < 100
2 | Cc1ccc(Br)nc1NC(=O)[C@@H]1C[C@@](C)(F)CN1C(=O)Cn1c2ccc(C(F)(F)F)cc2c2c(N)ncnc21 [Compound 209b, (2S,4R)-1-(2-(4-amino-6-(trifluoromethyl)-9H-pyrimido[4,5-b]indol-9-yl)acetyl)-N-(6-bromo-3-methylpyridin-2-yl)-4-fluoro-4-methylpyrrolidine-2-carboxamide] | < 100
3 | CC1(C)C[C@@H](C(=O)Nc2cccc(Br)n2)N(C(=O)Cn2c3ccc(C(F)(F)F)cc3c3c(N)ncnc32)C1 [Compound 210d, (S)-1-(2-(4-amino-6-(trifluoromethyl)-9H-pyrimido[4,5-b]indol-9-yl)acetyl)-N-(6-bromopyridin-2-yl)-4,4-dimethylpyrrolidine-2-carboxamide] | 100 to 1000
4 | NC[C@@H]1C[C@@H](C(=O)Nc2cccc(Br)n2)N(C(=O)Cn2c3ccc(C(F)(F)F)cc3c3c(N)ncnc32)C1 [Compound 211e, (2S,4S)-1-(2-(4-amino-6-(trifluoromethyl)-9H-pyrimido[4,5-b]indol-9-yl)acetyl)-4-(aminomethyl)-N-(6-bromopyridin-2-yl)pyrrolidine-2-carboxamide] | 100 to 1000
5 | NC[C@H]1C[C@@H](C(=O)Nc2cccc(Br)n2)N(C(=O)Cn2c3ccc(C(F)(F)F)cc3c3c(N)ncnc32)C1 [Compound 212e, (2S,4R)-1-(2-(4-amino-6-(trifluoromethyl)-9H-pyrimido[4,5-b]indol-9-yl)acetyl)-4-(aminomethyl)-N-(6-bromopyridin-2-yl)pyrrolidine-2-carboxamide] | 100 to 1000
6 | C[C@@]1(F)C[C@@H](C(=O)Nc2cncc(Br)n2)N(C(=O)Cn2c3ccc(C(F)(F)F)cc3c3c(N)ncnc32)C1 [Compound 213d, (2S,4R)-1-(2-(4-amino-6-(trifluoromethyl)-9H-pyrimido[4,5-b]indol-9-yl)acetyl)-N-(6-bromopyrazin-2-yl)-4-fluoro-4-methylpyrrolidine-2-carboxamide] | < 100
7 | C[C@@]12C[C@@H](C(=O)Nc3cccc(Br)n3)N(C(=O)Cn3c4ccc(CCC(=O)O)cc4c4c(N)ncnc43)[C@@H]1C2 [Compound 214b, 3-(4-amino-9-(2-((1R,3S,5R)-3-((6-bromopyridin-2-yl)carbamoyl)-5-methyl-2-azabicyclo[3.1.0]hexan-2-yl)-2-oxoethyl)-9H-pyrimido[4,5-b]indol-6-yl)propanoic acid] | < 100
8 | CN(C)c1ccc2c(c1)c1c(N)ncnc1n2CC(=O)N1[C@H](C(=O)Nc2cccc(Br)n2)C[C@@]2(C)C[C@@H]12 [Compound 215g, (1R,3S,5R)-2-(2-(4-amino-6-(dimethylamino)-9H-pyrimido[4,5-b]indol-9-yl)acetyl)-N-(6-bromopyridin-2-yl)-5-methyl-2-azabicyclo[3.1.0]hexane-3-carboxamide] | < 100
9 | COC(=O)c1cc(C)c2c(c1)c1c(N)ncnc1n2CC(=O)N1[C@H](C(=O)Nc2cccc(Br)n2)C[C@@]2(C)C[C@@H]12 [Compound 216g, methyl 4-amino-9-(2-((1R,3S,5R)-3-((6-bromopyridin-2-yl)carbamoyl)-5-methyl-2-azabicyclo[3.1.0]hexan-2-yl)-2-oxoethyl)-8-methyl-9H-pyrimido[4,5-b]indole-6-carboxylate] | < 100
10 | COC(=O)c1cc(C)c2c(c1)c1c(N)ncnc1n2CC(=O)N1[C@@H]2C[C@@H]2C[C@H]1C(=O)Nc1cccc(Br)n1 [Compound 217a, methyl 4-amino-9-(2-((1R,3S,5R)-3-((6-bromopyridin-2-yl)carbamoyl)-2-azabicyclo[3.1.0]hexan-2-yl)-2-oxoethyl)-8-methyl-9H-pyrimido[4,5-b]indole-6-carboxylate] | < 100
